From patent publication US10010513B2, “Aqueous pharmaceutical composition containing a biologic therapeutic agent and guanidine or a guanidine derivative and an injection including the composition” (Novartis AG, priority 2012, dated 2018)

Columns and labels:
[1] = system: New Zealand White rabbit; assay: Toxicity of Arginine-containing formulation buffer following intravitreal administration; assay type: in vivo
Description: A study was performed to determine the toxicity of an Arginine-containing formulation buffer following intravitreal administration to the New Zealand White rabbit for 4 weeks. Three buffers in 50 μl volumes and varying in concentrations of Arginine were injected intravitreally on a weekly basis for 3 weeks (i.e., three doses) and evaluated for toxicity. The three buffers were as follows: (1) 10 mM Histidine, 170 mM, Trehalose, 0.01% polysorbate 20, pH 5.5; (2) 50 mM Arginine, 10 mM, Histidine, 120 mM Trehalose, 0.01% polysorbate 20, pH 5.5; and (3) 150 mM Arginine, 10 mM Histidine, 0.01% polysorbate).

[2] = Viscosity of the formulations; assay type: physicochemical; settings: Table 5 summary; 150 mM excipient, IgG1/lambda monoclonal antibody
Description: Unless otherwise specifically stated, viscosity of any composition discussed herein is determined at a temperature of 20° C. and a shear rate of 1029 s^−1 with a cone spindle of geometry 0.50°/40 mm.

SMILES	Damage to photoreceptor cells of the eye ([1]; higher concentrations, about 150 mM)	Damage to photoreceptor cells of the eye ([1]; lower concentrations of arginine)	Reduction of the viscosity of the biologic relative to trehalose, urea and taurin [2]
N=C(N)NCCC[C@H](N)C(=O)O [arginine]	have shown damage to photoreceptor cells	do not cause damage to photoreceptor cells	far superior in reducing the viscosity
N=C(N)N [guanidine]			far superior in reducing the viscosity
